For assay [1], the target named is c-Cbl (Homo sapiens (Human), UniProt P22681). As to the kind of experiment: C-Cbl LCK Ub TR-FRET assay (C-cbl Lck HTRF). The class given is biochemical. The procedure, abridged:
(§1)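 Signal is read once the detection mix has stood 20 min at ambient temperature. Curves are anchored by DMSO as maximum and by omission of LCK as minimum.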
(In TR-FRET formats the signal depends on donor and acceptor labels being close together.)

For assay [2], the target named is Human Cbl-b (residues 40-426) (Homo sapiens (Human), UniProt Q13191). Briefly: Cbl-b SPR assay. As to conditions: for Fold of selectivity: C-cbl SPR Kd vs Cbl-b SPR Kd; for Kd: SPR, 20° C. The class given is binding. In outline:
(§2)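 Binding was measured by SPR and fitted to a 1:1 model from multi-cycle kinetics with double referencing, 6 concentrations in 2-fold dilution. Alternatively, single-cycle titrations up to 500 nM (120 s contact) were fitted with kd fixed from a single-exponential fit of chaser-measured % compound bound versus time.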
On the technique in general: In SPR one partner is held on a chip, and binding of the other changes the refractive index at the surface.

Assay [3] addresses Cbl-b (Homo sapiens (Human), UniProt Q13191). As to the kind of experiment: Cbl-b LCK Ub TR-FRET assay (Cbl-b Lck HTRF). The class given is biochemical. As to conditions: for IC50: Cbl-b LCK Ub TR-FRET; for fold-selectivity (Cbl-b over C-cbl): ratio C-cbl Lck HTRF IC50 / Cbl-b Lck HTRF IC50. In outline:
as §1

Assay [4] addresses c-Cbl (residues 47-435) (Homo sapiens (Human), UniProt P22681). Briefly: c-Cbl SPR assay. The class given is binding. As to conditions: 20° C. In outline: as §2

What is called IC50 is the concentration that gives 50% inhibition. Low readings indicate greater potency in that assay, high ones weaker potency in that assay. For orientation: Kd means the free concentration of one partner at which half of the binding sites on the other are occupied at equilibrium, for simple one-to-one binding. A lower Kd goes with higher affinity.

Sequence of c-Cbl (residues 47-435) (P22681 47-435): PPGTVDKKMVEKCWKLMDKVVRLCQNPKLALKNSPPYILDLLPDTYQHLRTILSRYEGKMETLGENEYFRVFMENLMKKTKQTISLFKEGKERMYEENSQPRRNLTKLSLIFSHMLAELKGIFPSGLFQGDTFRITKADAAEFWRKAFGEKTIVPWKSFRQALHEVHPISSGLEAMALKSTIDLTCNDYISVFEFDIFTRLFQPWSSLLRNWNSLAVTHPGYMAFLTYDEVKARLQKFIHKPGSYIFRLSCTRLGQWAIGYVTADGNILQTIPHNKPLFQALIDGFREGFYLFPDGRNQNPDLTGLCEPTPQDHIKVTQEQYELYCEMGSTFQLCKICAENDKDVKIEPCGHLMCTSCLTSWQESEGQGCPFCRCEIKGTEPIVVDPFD
Sequence of c-Cbl (P22681 47-435): as above
Sequence of Cbl-b (Q13191 40-426): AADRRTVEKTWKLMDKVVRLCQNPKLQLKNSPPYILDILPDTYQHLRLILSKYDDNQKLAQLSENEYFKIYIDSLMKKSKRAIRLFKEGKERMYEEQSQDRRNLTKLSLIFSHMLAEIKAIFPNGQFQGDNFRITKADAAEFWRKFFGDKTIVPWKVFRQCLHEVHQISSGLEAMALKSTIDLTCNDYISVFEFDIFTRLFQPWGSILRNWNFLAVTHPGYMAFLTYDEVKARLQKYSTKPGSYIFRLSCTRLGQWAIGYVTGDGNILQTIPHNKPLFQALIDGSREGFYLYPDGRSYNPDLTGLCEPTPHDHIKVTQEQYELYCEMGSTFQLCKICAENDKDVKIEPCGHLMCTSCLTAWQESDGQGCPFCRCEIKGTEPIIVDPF
Sequence of Human Cbl-b (residues 40-426) (Q13191 40-426): as above

In assay [1], `CC(C)[C@H]1CN(C)CCN1Cc1cc2c(c(C(F)F)c1)CN(c1cccc(C3(c4nncn4C)CC4(COC4)C3)c1)C2=O.O=CO.O=CO` [Compound 198, (S)-4-(difluoromethyl)-6-((2-isopropyl-4-methylpiperazin-1-yl)methyl)-2-(3-(6-(4-methyl-4H-1,2,4-triazol-3-yl)-2-oxaspiro[3.3]heptan-6-yl)phenyl)isoindolin-1-one formate] gave an IC50 of 200 nM. In assay [2], this compound showed a Fold of selectivity of 5.1× and a Kd of 29 nM. For the same compound, in assay [3], the IC50 stood at 46 nM and the “fold-selectivity (Cbl-b over C-cbl)” value is reported as 4.4x. The Kd in assay [4] came to 120 nM.
With `COc1cc(N2Cc3c(cc(CNC4(C)CCC4)cc3C(F)(F)F)C2=O)cc([C@]2(c3nncn3C)C[C@@H](OC)C2)c1` [Compound 200, 2-(3-methoxy-5-((1s,3s)-3-methoxy-1-(4-methyl-4H-1,2,4-triazol-3-yl)cyclobutyl)phenyl)-6-(((1-methylcyclobutyl)amino)methyl)-4-(trifluoromethyl)isoindolin-1-one], the IC50 in assay [1] turned out to be 40 nM. In assay [2], this compound displayed a Fold of selectivity of 2.4× and a Kd of 8 nM. In assay [3], it took 24 nM to reach half-maximal inhibition (IC50) and the “fold-selectivity (Cbl-b over C-cbl)” value is 1.7x. Binding in assay [4] was characterised by a dissociation constant (Kd) of 19 nM.
In assay [1], `COc1cc(N2Cc3c(cc(CNC4(C)CCC4)cc3C(F)(F)F)C2=O)cc([C@]2(c3nncn3C)C[C@H](OC)C2)c1` [Compound 201, 2-(3-methoxy-5-((1r,3r)-3-methoxy-1-(4-methyl-4H-1,2,4-triazol-3-yl)cyclobutyl)phenyl)-6-(((1-methylcyclobutyl)amino)methyl)-4-(trifluoromethyl)isoindolin-1-one] had an IC50 of 18 nM. In assay [2], this compound yielded a Fold of selectivity of 3.6× and a Kd of 3 nM. In assay [3], the IC50 came out at 12 nM and the “fold-selectivity (Cbl-b over C-cbl)” value worked out at 1.5x. For the same compound, the Kd in assay [4] turned out to be 11 nM.
Regarding `CCOc1cc(N2Cc3c(cc(CNC4(C)CCC4)cc3C(F)(F)F)C2=O)cc([C@]2(c3nncn3C)C[C@H](OC)C2)c1` [Compound 202, 2-(3-ethoxy-5-((1r,3r)-3-methoxy-1-(4-methyl-4H-1,2,4-triazol-3-yl)cyclobutyl)phenyl)-6-(((1-methylcyclobutyl)amino)methyl)-4-(trifluoromethyl)isoindolin-1-one], in assay [1], half-maximal inhibition (IC50) required 21 nM. Besides, in assay [2], the Fold of selectivity came to 5.2× and the Kd is 3.3 nM. Further, in assay [3], the IC50 came out at 11 nM and the “fold-selectivity (Cbl-b over C-cbl)” value is 1.8x. Further, in assay [4], binding was characterised by a dissociation constant (Kd) of 17 nM.
As for `CCOc1cc(N2Cc3c(cc(CNC4(C)CCC4)cc3C(F)(F)F)C2=O)cc([C@]2(c3nncn3C)C[C@@H](OC)C2)c1` [Compound 203, 2-(3-ethoxy-5-((1s,3s)-3-methoxy-1-(4-methyl-4H-1,2,4-triazol-3-yl)cyclobutyl)phenyl)-6-(((1-methylcyclobutyl)amino)methyl)-4-(trifluoromethyl)isoindolin-1-one], in assay [1], half-maximal inhibition (IC50) was put at 38 nM. Besides, in assay [2], the Fold of selectivity was determined as 3.3× and binding was characterised by a dissociation constant (Kd) of 6.4 nM. In addition, in assay [3], inhibition was half-maximal at 18 nM (IC50) and the “fold-selectivity (Cbl-b over C-cbl)” value worked out at 2.1x. Further, the Kd in assay [4] was 21 nM.
For the compound `C=CCOc1cc(N2Cc3c(cc(CNC4(C)CCC4)cc3C(F)(F)F)C2=O)cc([C@]2(c3nncn3C)C[C@@H](OC)C2)c1` [Compound 205, 2-(3-(allyloxy)-5-((1s,3s)-3-methoxy-1-(4-methyl-4H-1,2,4-triazol-3-yl)cyclobutyl)phenyl)-6-(((1-methylcyclobutyl)amino)methyl)-4-(trifluoromethyl)isoindolin-1-one], the IC50 in assay [1] stood at 240 nM; in assay [3], 63 nM. Also, in assay [2], the Fold of selectivity is 2.8×. For the same compound, the values for the Kd in assay [2] and in assay [4] were 46 nM and 130 nM, respectively. The “fold-selectivity (Cbl-b over C-cbl)” value in assay [3] amounted to 3.8x.
In turn, `CO[C@H]1C[C@@](c2cc(OC(C)C)cc(N3Cc4c(cc(CNC5(C)CCC5)cc4C(F)(F)F)C3=O)c2)(c2nncn2C)C1` [Compound 206, 2-(3-isopropoxy-5-((1s,3s)-3-methoxy-1-(4-mehtyl-4H-1,2,4-triazol-3-yl)cyclobutyl)phenyl)-6-(((1-methylcyclobutyl)amino)methyl)-4-(trifluoromethyl)isoindolin-1-one] yielded an IC50 in assay [1] of 82 nM. Further, in assay [2], the Fold of selectivity came out at 2.4× and the Kd was determined as 12 nM. In assay [3], 34 nM corresponded to half-maximal inhibition (IC50) and the “fold-selectivity (Cbl-b over C-cbl)” value turned out to be 2.4x. The same compound yielded a Kd in assay [4] of 30 nM.
As for `CO[C@H]1C[C@](c2cc(OC(C)C)cc(N3Cc4c(cc(CNC5(C)CCC5)cc4C(F)(F)F)C3=O)c2)(c2nncn2C)C1` [Compound 207, 2-(3-isopropoxy-5-((1r,3r)-3-methoxy-1-(4-methyl-4H-1,2,4-triazol-3-yl)cyclobutyl)phenyl)-6-(((1-methylcyclobutyl)amino)methyl)-4-(trifluoromethyl)isoindolin-1-one], inhibition in assay [1] was half-maximal at 52 nM (IC50). Moreover, in assay [2], the Fold of selectivity is 2.6× and binding was characterised by a dissociation constant (Kd) of 9.3 nM. For the same compound, in assay [3], the IC50 worked out at 24 nM and the “fold-selectivity (Cbl-b over C-cbl)” value amounted to 2.2x. In assay [4], the Kd was determined as 24 nM.
Take `CO[C@H]1C[C@@](c2cc(OC3CCCC3)cc(N3Cc4c(cc(CNC5(C)CCC5)cc4C(F)(F)F)C3=O)c2)(c2nncn2C)C1` [Compound 208, 2-(3-(cyclopentyloxy)-5-((1s,3s)-3-methoxy-1-(4-methyl-4H-1,2,4-triazol-3-yl)cyclobutyl)phenyl)-6-(((1-methylcyclobutyl)amino)methyl)-4-(trifluoromethyl)isoindolin-1-one]: the IC50 came out at 2200 nM in assay [1] and 450 nM in assay [3]. Besides, in assay [2], the Fold of selectivity amounted to 6.0×. Moreover, the values for the Kd in assay [2] and in assay [4] were 250 nM and 1500 nM, respectively. Moreover, the “fold-selectivity (Cbl-b over C-cbl)” value in assay [3] is 4.8x.
Take `CO[C@H]1C[C@](c2cc(NC3CCCC3)cc(N3Cc4c(cc(CNC5(C)CCC5)cc4C(F)(F)F)C3=O)c2)(c2nncn2C)C1` [Compound 209, 2-(3-(cyclopentylamino)-5-((1r,3r)-3-methoxy-1-(4-methyl-4H-1,2,4-triazol-3-yl)cyclobutyl)phenyl)-6-(((1-methylcyclobutyl)amino)methyl)-4-(trifluoromethyl)isoindolin-1-one]: the results for the IC50 in assay [1] and in assay [3] were 320 nM and 44 nM, respectively. Also, in assay [2], the Fold of selectivity is 12×. In addition, the Kd in assay [2] worked out at 17 nM; in assay [4], 200 nM. Besides, in assay [3], the “fold-selectivity (Cbl-b over C-cbl)” value came out at 7.2x.
With `CCNc1cc(N2Cc3c(cc(CNC4(C)CCC4)cc3C(F)(F)F)C2=O)cc([C@]2(c3nncn3C)C[C@H](OC)C2)c1` [Compound 210, 2-(3-(ethylamino)-5-((1r,3r)-3-methoxy-1-(4-methyl-4H-1,2,4-triazol-3-yl)cyclobutyl)phenyl)-6-(((1-methylcyclobutyl)amino)methyl)-4-(trifluoromethyl)isoindolin-1-one], the values for the IC50 in assay [1] and in assay [3] were 12 nM and 9 nM, respectively. In assay [2], this compound registered a Fold of selectivity of 4.7×. The Kd is 1.5 nM in assay [2] and 6.7 nM in assay [4]. For the same compound, the “fold-selectivity (Cbl-b over C-cbl)” value in assay [3] is listed as 1.3x.
On to `CO[C@H]1C[C@](c2cc(NC3CCC3)cc(N3Cc4c(cc(CNC5(C)CCC5)cc4C(F)(F)F)C3=O)c2)(c2nncn2C)C1` [Compound 211, 2-(3-(cyclobutylamino)-5-((1r,3r)-3-methoxy-1-(4-methyl-4H-1,2,4-triazol-3-yl)cyclobutyl)phenyl)-6-(((1-methylcyclobutyl)amino)methyl)-4-(trifluoromethyl)isoindolin-1-one], for which, in assay [1], it took 60 nM to reach half-maximal inhibition (IC50). Further, in assay [2], the Fold of selectivity stood at 14× and the Kd worked out at 3.5 nM. Also, in assay [3], 15 nM corresponded to half-maximal inhibition (IC50) and the “fold-selectivity (Cbl-b over C-cbl)” value is given as 4.0x. The compound also showed a Kd in assay [4] of 49 nM.
`CO[C@H]1C[C@](c2cc(OC3CCCC3)cc(N3Cc4c(cc(CNC5(C)CCC5)cc4C(F)(F)F)C3=O)c2)(c2nncn2C)C1` [Compound 212, 2-(3-(cyclopentyloxy)-5-((1r,3r)-3-methoxy-1-(4-methyl-4H-1,2,4-triazol-3-yl)cyclobutyl)phenyl)-6-(((1-methylcyclobutyl)amino)methyl)-4-(trifluoromethyl)isoindolin-1-one] returned an IC50 in assay [1] of 390 nM. In assay [2], the Fold of selectivity is 4.8× and the Kd is 110 nM. In assay [3], the IC50 was 150 nM and the “fold-selectivity (Cbl-b over C-cbl)” value was determined as 2.6x. This compound also returned a Kd in assay [4] of 530 nM.
Consider `C=C[C@@H](C)Oc1cc(N2Cc3c(cc(CNC4(C)CCC4)cc3C(F)(F)F)C2=O)cc([C@]2(c3nncn3C)C[C@@H](OC)C2)c1` [Compound 213, 2-(3-((R)-but-3-en-2-yloxy)-5-((1s,3S)-3-methoxy-1-(4-methyl-4H-1,2,4-triazol-3-yl)cyclobutyl)phenyl)-6-(((1-methylcyclobutyl)amino)methyl)-4-(trifluoromethyl)isoindolin-1-one], for which half-maximal inhibition in assay [1] (IC50) required 440 nM. For the same compound, in assay [2], the Fold of selectivity turned out to be 1.8× and binding was characterised by a dissociation constant (Kd) of 160 nM. Further, in assay [3], the IC50 stood at 240 nM and the “fold-selectivity (Cbl-b over C-cbl)” value came out at 1.9x. In assay [4], this compound displayed a Kd of 300 nM.

The record behind these values is US12187709B2 (Genentech, Inc., priority 2021, dated 2025).
